Assay results taken from paper PMC6222789, “CF3-Substituted Mollugin 2-(4-Morpholinyl)-ethyl ester as a Potential Anti-inflammatory Agent with Improved Aqueous Solubility and Metabolic Stability” (Molecules : A Journal of Synthetic Chemistry and Natural …, 2018).

Columns and labels:
[1] = Metabolic stability, dog liver microsomes; assay type: in vitro ADME; conditions: 30 min, 1 μM
Experimental: (§1) Pooled human liver microsomes (150 donor) and dog, rat, mouse liver microsomes were obtained from BD Gentest Co. (Woburn, MA, USA). NADPH regeneration system was obtained from Promega. S-Mephenytoin, 4-hydroxymephenytoin, and 1’-hydroxymidazolam were purchased from Ultrafine Chemical Co. (Manchester, UK). All other chemicals and solvents were of the highest grade available. The metabolic stability assay was performed by incubation of human or selected animal liver microsomes (most often dog, rat and mouse), at 37 °C with a test compound at a final concentration of 1 μM, in the presence of 0.5 mg/mL microsomal protein and NADPH regeneration system, in a total volume of 100 μL of 100 mM phosphate buffer, pH 7.4. The incubation was started by the addition of NADPH regeneration system and terminated with 40 μL of ice-cold acetonitrile at 0 and 30 min. Precipitated proteins were removed by centrifugation at 10,000× g for 5 min at 4 °C. Aliquots of the supernatant were injected onto an LC-MS/MS system. Incubations terminated prior to the addition of NADPH regeneration system (time point 0 min) were used as standards, defined as 100%. Percent of the parent compound remaining was calculated by comparing peak area.

[2] = Metabolic stability, mouse liver microsomes; assay type: in vitro ADME; conditions: 30 min, 1 μM
Experimental: as §1

[3] = Plasma stability, rat plasma; assay type: in vitro ADME; conditions: 2 h, 37 °C, 1 μM
Experimental: (§2) The plasma stability assay was performed by incubation of human or rat plasma with a test compound in a final concentration of 1 μM for 120 min at 37 °C. The incubation was terminated by addition of 40 μL of ice-cold acetonitrile and vortexing for 5 min. The precipitated proteins were removed by centrifugation at 14,000× g for 5 min at 4 °C. Aliquots of the supernatant were injected onto a Shimadzu Nexera XR LC system. Percentages of the parent compound remaining were calculated by comparing peak areas using the Xcalibur software (version 1.6.1, Waltham, MA, USA).

[4] = Metabolic stability, human liver microsomes; assay type: in vitro ADME; conditions: 1 μM
Experimental: as §1

[5] = Metabolic stability, rat liver microsomes; assay type: in vitro ADME; conditions: 30 min, 1 μM
Experimental: as §1

[6] = tested on: TNF-α-induced adhesion of U937 monocytic cells to HT-29 cells; assay: TNF-α-induced colonic epithelial cell adhesion assay; assay type: cell-based, human; conditions: for inhibition at 10 µM: Homo sapiens, Epithelial cell, U937 adhesion to HT-29 cells, TNF-α-induced; for inhibition of TNF-α-induced monocyte-epithelial adhesion: 10 μM
Experimental: (§3) Synthesized mollugin derivatives were subjected to the colonic epithelial cell adhesion assay, which mimics the initial stage of colon inflammation. The inhibition of TNF-α-induced or IL-6-induced adhesion of U937 monocytic cells to HT-29 cells in 10 μM solution of synthesized molecules was measured, and the results are summarized in Table 1 and Table 2. Mesalazine (2), a commercially available medication for the treatment of IBD, and mollugin were chosen as assay positive controls.
(§4) HT-29 human colonic epithelial cells and U937 human pre-monocytic cells were grown in RPMI 1640 medium supplemented with 10% FBS, 100 IU/mL penicillin, and 100 µg/mL streptomycin in a humidified incubator under 5% CO2/95% air.
(§5) U937 monocytic cell adhesion to colonic epithelial cells was evaluated using human U937 pre-monocytic cells, which were prelabeled with 2′,7′-bis(2-carboxyethyl)-5(6)-carboxyfluorescein acetoxymethyl ester (BCECF/AM, 10 μg/mL) for 1 h at 37 °C. HT-29 cells cultured in 24-well plates were pretreated with test compound, 5-ASA, or tofacitinib for 1 h prior to incubation with TNF-α (10 ng/mL) and IL-6 (5 ng/mL) for an additional 3 h. Cells were then co-incubated with BCECF/AM-prelabeled U937 cells (1 × 10^6 cells/well) for 30 min at 37 °C. Non-adhering U937 cells were removed, and the HT-29 cells and adherent U937 cells were washed twice with PBS. Images were captured and processed with a Nikon ECLIPSE TE2000-U microscope and NIS-Elements F software (Nikon, Tokyo, Japan). For quantitative analysis, other sets of cells were lysed in 0.1% Triton X-100 in Tris (0.1 M), and the fluorescence was measured using a fluorescence-detecting microplate reader (Promega , Madison, WI, USA) at […]. Experiments were performed in triplicate and repeated at least three times independently.

[7] = tested on: IL-6-induced adhesion of U937 monocytic cells to HT-29 cells; assay: IL-6-induced colonic epithelial cell adhesion assay; assay type: cell-based, human; conditions: for inhibition at 10 µM: Homo sapiens, Epithelial cell, U937 adhesion to HT-29 cells, IL-6-induced; for inhibition of IL-6-induced monocyte-epithelial adhesion: 10 μM
Experimental: as §3, §4, §5

[8] = Plasma stability, human plasma; assay type: in vitro ADME; conditions: 37 °C, 1 μM
Experimental: as §2

Metabolic Stability (% Remain, 30 min) Dog [1] | Metabolic Stability (% Remain, 30 min) Mouse [2] | Plasma Stability (% Remain, 2 h) Rat [3] | Metabolic Stability (% Remain, 30 min) Human [4] | Metabolic Stability (% Remain, 30 min) Rat [5] | Plasma Stability (% Remain, 2 h) Human [8] | SMILES | inhibition at 10 µM [6] | inhibition at 10 µM [7] | inhibition of TNF-α-induced monocyte-epithelial adhesion [6] | inhibition of IL-6-induced monocyte-epithelial adhesion [7]
52 % Remain | 82 % Remain | 2 % Remain | 52 % Remain | 78 % Remain | 39.5 % Remain | COC(=O)c1c2c(c3ccc(F)cc3c1O)OC(C)(C)C=C2 [14a, Methyl 8-fluoro-6-hydroxy-2,2-dimethyl-2H-benzo[h]chromene-5-carboxylate] | 36.1 ± 7.6% | 59.4 ± 7.4% | – | –
4 % Remain | 19 % Remain | 1 % Remain | 88 % Remain | 51 % Remain | 100 % Remain | COC(=O)c1c2c(c3ccc(C)cc3c1O)OC(C)(C)C=C2 [14b, Methyl 6-hydroxy-2,2,8-trimethyl-2H-benzo[h]chromene-5-carboxylate] | 29.8 ± 7.2% | 23.4 ± 2.5% | – | –
57 % Remain | 18 % Remain | 55 % Remain | 41 % Remain | 9 % Remain | 100 % Remain | Cc1ccc2c3c(c(C(=O)OCCN4CCOCC4)c(O)c2c1)C=CC(C)(C)O3 [15b, 2-Morpholinoethyl 6-hydroxy-2,2,8-trimethyl-2H-benzo[h]chromene-5-carboxylate] | 24.9 ± 3.5% | 54.3 ± 6.5% | – | –
10 % Remain | 10 % Remain | 91 % Remain | 78 % Remain | 9 % Remain | 100 % Remain | CC1(C)C=Cc2c(C(=O)OCCN3CCOCC3)c(O)c3cc(F)ccc3c2O1 [15a, 2-Morpholinoethyl 8-fluoro-6-hydroxy-2,2-dimethyl-2H-benzo[h]chromene-5-carboxylate] | 36.6 ± 9.4% | 61.1 ± 10.9% | – | –
30 % Remain | 11 % Remain | 81 % Remain | 48 % Remain | 8 % Remain | 94 % Remain | CC1(C)C=Cc2c(C(=O)OCCN3CCOCC3)c(O)c3ccc(F)cc3c2O1 [15d, 2-Morpholinoethyl 9-fluoro-6-hydroxy-2,2-dimethyl-2H-benzo[h]chromene-5-carboxylate] | 47 ± 8.9% | 75.6 ± 11.5% | – | –
22 % Remain | 70 % Remain | 10 % Remain | 100 % Remain | 90 % Remain | 97 % Remain | COC(=O)c1c2c(c3ccc(C(F)(F)F)cc3c1O)OC(C)(C)C=C2 [14c, Methyl 6-hydroxy-2,2-dimethyl-8-(trifluoromethyl)-2H-benzo[h]chromene-5-carboxylate] | 63.2 ± 10.8% | 39.3 ± 5.6% | – | –

The remaining lines, values behind:

SMILES | Metabolic Stability (% Remain, 30 min) Dog [1] | Metabolic Stability (% Remain, 30 min) Mouse [2] | Plasma Stability (% Remain, 2 h) Rat [3] | Metabolic Stability (% Remain, 30 min) Human [4] | Metabolic Stability (% Remain, 30 min) Rat [5] | Plasma Stability (% Remain, 2 h) Human [8] | inhibition at 10 µM [6] | inhibition at 10 µM [7] | inhibition of TNF-α-induced monocyte-epithelial adhesion [6] | inhibition of IL-6-induced monocyte-epithelial adhesion [7]
COC(=O)c1c2c(c3cc(F)ccc3c1O)OC(C)(C)C=C2 [14d, Methyl 9-fluoro-6-hydroxy-2,2-dimethyl-2H-benzo[h]chromene-5-carboxylate] | – | – | – | – | – | – | 24.9 ± 8.1% | 28 ± 5.6% | – | –
CN(C)CCOC(=O)c1c2c(c3ccccc3c1O)OC(C)(C)C=C2 [6a, 2-(Dimethylamino)ethyl 6-hydroxy-2,2-dimethyl-2H-benzo[h]chromene-5-carboxylate] | 2 % Remain | 3 % Remain | – | 6 % Remain | 2 % Remain | – | 38 ± 4.9% | 35.5 ± 4.3% | – | –
CNC(=O)c1c2c(c3ccccc3c1O)OC(C)(C)C=C2 [6l, 6-Hydroxy-N,2,2-trimethyl-2H-benzo[h]chromene-5-carboxamide] | 1 % Remain | 2 % Remain | – | 13 % Remain | 1 % Remain | – | 45.4 ± 4.7% | 12.2 ± 4.4% | – | –
CN(C)CCCOC(=O)c1c2c(c3ccccc3c1O)OC(C)(C)C=C2 [6b, 3-(Dimethylamino)propyl 6-hydroxy-2,2-dimethyl-2H-benzo[h]chromene-5-carboxylate] | 9 % Remain | 8 % Remain | – | 12 % Remain | 7 % Remain | – | 39.6 ± 2.9% | 34.8 ± 4.1% | – | –
CC1(C)C=Cc2c(C(=O)OCCc3ccccn3)c(O)c3ccccc3c2O1 [6j, 2-(Pyridin-2-yl)ethyl 6-hydroxy-2,2-dimethyl-2H-benzo[h]chromene-5-carboxylate] | – | – | – | – | – | – | 43.1 ± 6.2% | 33.6 ± 5.9% | – | –
CN1CCN(C(=O)c2c3c(c4ccccc4c2O)OC(C)(C)C=C3)CC1 [6n, (6-Hydroxy-2,2-dimethyl-2H-benzo[h]chromen-5-yl)(4-methylpiperazin-1-yl)methanone] | – | – | – | – | – | – | 37.4 ± 3.3% | 34.2 ± 7.9% | – | –
CCN1CCN(C(=O)c2c3c(c4ccccc4c2O)OC(C)(C)C=C3)CC1 [6o] | – | – | – | – | – | – | 46.2 ± 5.4% | 9.4 ± 2.1% | good % inhibition | reduced % inhibition
CCNC(=O)c1c2c(c3ccccc3c1O)OC(C)(C)C=C2 [6m, N-Ethyl-6-hydroxy-2,2-dimethyl-2H-benzo[h]chromene-5-carboxamide] | – | – | – | – | – | – | 38.4 ± 5.7% | 25.8 ± 3.4% | – | –
CC1(C)C=Cc2c(C(=O)OCCN3CCCC3)c(O)c3ccccc3c2O1 [6c, 2-(Pyrrolidin-1-yl)ethyl 6-hydroxy-2,2-dimethyl-2H-benzo[h]chromene-5-carboxylate] | – | – | – | – | – | – | 39.7 ± 5.7% | 12.4 ± 2.1% | good % inhibition | reduced % inhibition
CC1(C)C=Cc2c(C(N)=O)c(O)c3ccccc3c2O1 [6k, 6-Hydroxy-2,2-dimethyl-2H-benzo[h]chromene-5-carboxamide] | 6 % Remain | 2 % Remain | – | 10 % Remain | 2 % Remain | – | 42.6 ± 4.2% | 39.1 ± 4.7% | – | –
